The results in this text go back to PMC8876975, “EGFR and COX-2 Dual Inhibitor: The Design, Synthesis, and Biological Evaluation of Novel Chalcones” (Molecules, 2022).

Data set [1] relates to pancreatic cancer (PaCa-2). Put plainly: MTT cytotoxicity assay, PaCa-2. The data set is classed as cell-based. As to conditions: PaCa-2, MTT, 72 h; read-out: Antiproliferative Activity IC50 ± SEM, PaCa-2.
The nature of data set [2]: Cell viability % (MTT, normal cell line). As to conditions: human, MRC5 normal fetal lung fibroblast cells.
The target of data set [3] is T1, human recombinant COX-2 (Homo sapiens, UniProt P35354).
T1 construct: purchased Cayman Chemicals
T1 sequence (P35354 18-604): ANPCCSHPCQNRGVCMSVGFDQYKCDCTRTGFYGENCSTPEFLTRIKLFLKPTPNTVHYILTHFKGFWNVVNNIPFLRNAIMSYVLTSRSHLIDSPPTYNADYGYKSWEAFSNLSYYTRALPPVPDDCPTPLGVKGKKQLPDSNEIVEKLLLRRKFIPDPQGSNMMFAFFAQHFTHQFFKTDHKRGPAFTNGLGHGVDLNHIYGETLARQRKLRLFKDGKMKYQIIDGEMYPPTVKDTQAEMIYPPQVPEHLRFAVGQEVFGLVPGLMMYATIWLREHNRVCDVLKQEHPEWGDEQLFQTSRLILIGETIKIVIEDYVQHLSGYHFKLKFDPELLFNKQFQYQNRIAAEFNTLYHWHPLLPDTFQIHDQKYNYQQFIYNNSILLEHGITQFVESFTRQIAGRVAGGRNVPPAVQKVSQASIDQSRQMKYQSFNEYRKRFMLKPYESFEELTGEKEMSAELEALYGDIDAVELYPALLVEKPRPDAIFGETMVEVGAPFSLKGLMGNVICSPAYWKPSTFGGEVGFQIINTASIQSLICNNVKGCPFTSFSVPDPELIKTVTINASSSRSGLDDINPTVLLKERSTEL
In words: Cyclooxygenase assay (PGE2 quantification), COX-2. In kind it is biochemical. Conditions: mean ± SD; n = 3.

Data set [4] relates to pancreatic ductal cancer (Panc-1). In words: MTT cytotoxicity assay, Panc-1. Conditions: Homo sapiens; Panc-1, MTT, 72 h; read-out: Antiproliferative Activity IC50 ± SEM, Panc-1. The data set is classed as cell-based.
Data set [5] relates to human colon cancer (HT-29). In words: MTT cytotoxicity assay, HT-29. The data set is classed as cell-based. Conditions: Homo sapiens; HT-29, MTT, 72 h; read-out: Antiproliferative Activity IC50 ± SEM, HT-29. (Tetrazolium assays rely on reduction of a dye to a coloured formazan, in cell work by metabolically active cells.)
The test system of data set [6] is human malignant melanoma (A375). In words: MTT cytotoxicity assay, A375. The data set is classed as cell-based. As to conditions: Homo sapiens, A-375, 72 h, read-out: Antiproliferative Activity IC50 ± SEM, A375.
The subject of data set [7] is IL-6. Put plainly: ELISA, LPS-induced IL-6 release in RAW264.7 macrophages. In kind it is cell-based, mouse. Conditions: Mus musculus, RAW264.7; RAW 264.7, compound 10 µM for 2 h, then LPS 0.5 µg/mL for 22 h. (In general: In an ELISA, binding on a coated surface is turned into a signal by an enzyme label.)
Data set [8] concerns the target T2, Sheep-derived COX-1 (Ovis aries, UniProt P05979).
T2 sequence (P05979 25-600): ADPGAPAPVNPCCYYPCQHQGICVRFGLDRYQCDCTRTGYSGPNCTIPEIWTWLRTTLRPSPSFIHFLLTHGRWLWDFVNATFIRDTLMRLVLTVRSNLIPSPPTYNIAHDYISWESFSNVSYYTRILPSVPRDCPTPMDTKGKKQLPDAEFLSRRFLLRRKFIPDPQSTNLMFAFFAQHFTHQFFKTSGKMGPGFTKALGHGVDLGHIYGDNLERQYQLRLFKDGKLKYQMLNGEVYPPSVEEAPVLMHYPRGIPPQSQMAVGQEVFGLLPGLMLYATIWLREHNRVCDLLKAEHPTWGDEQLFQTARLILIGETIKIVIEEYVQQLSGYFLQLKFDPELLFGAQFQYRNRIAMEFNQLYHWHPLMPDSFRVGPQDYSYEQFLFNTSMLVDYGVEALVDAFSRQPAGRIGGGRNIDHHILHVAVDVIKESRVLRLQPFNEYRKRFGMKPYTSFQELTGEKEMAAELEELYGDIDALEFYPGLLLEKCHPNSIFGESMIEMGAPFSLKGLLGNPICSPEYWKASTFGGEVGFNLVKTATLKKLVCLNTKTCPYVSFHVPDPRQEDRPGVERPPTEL
In words: Cyclooxygenase assay (PGE2 quantification), COX-1.

Data set [9] relates to TNF-α. Put plainly: ELISA, LPS-induced TNF-α release in RAW264.7 macrophages. The data set is classed as cell-based, mouse.
The subject of data set [10] is lung cancer (H-460). Put plainly: MTT cytotoxicity assay, H-460. Conditions: Homo sapiens, NCI-H460; H-460, MTT, 72 h; read-out: Antiproliferative Activity IC50 ± SEM, H-460. In kind it is cell-based.
Data set [11] deals with T3, human recombinant sPLA2-V (Homo sapiens, UniProt P39877).
T3 sequence (P39877 21-138): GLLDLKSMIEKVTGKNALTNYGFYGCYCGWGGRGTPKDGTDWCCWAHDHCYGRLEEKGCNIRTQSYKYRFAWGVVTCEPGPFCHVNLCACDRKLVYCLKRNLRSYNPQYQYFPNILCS
In words: Secretory PLA2-V activity assay (Ellman's photometric method). Background: DTNB colorimetry detects thiols as they appear.

For data set [12], the target named is T4, EGFR (Homo sapiens, UniProt P00533).
T4 construct: purchased PBS Bioscience (so in the source)
T4 sequence (P00533 25-1210): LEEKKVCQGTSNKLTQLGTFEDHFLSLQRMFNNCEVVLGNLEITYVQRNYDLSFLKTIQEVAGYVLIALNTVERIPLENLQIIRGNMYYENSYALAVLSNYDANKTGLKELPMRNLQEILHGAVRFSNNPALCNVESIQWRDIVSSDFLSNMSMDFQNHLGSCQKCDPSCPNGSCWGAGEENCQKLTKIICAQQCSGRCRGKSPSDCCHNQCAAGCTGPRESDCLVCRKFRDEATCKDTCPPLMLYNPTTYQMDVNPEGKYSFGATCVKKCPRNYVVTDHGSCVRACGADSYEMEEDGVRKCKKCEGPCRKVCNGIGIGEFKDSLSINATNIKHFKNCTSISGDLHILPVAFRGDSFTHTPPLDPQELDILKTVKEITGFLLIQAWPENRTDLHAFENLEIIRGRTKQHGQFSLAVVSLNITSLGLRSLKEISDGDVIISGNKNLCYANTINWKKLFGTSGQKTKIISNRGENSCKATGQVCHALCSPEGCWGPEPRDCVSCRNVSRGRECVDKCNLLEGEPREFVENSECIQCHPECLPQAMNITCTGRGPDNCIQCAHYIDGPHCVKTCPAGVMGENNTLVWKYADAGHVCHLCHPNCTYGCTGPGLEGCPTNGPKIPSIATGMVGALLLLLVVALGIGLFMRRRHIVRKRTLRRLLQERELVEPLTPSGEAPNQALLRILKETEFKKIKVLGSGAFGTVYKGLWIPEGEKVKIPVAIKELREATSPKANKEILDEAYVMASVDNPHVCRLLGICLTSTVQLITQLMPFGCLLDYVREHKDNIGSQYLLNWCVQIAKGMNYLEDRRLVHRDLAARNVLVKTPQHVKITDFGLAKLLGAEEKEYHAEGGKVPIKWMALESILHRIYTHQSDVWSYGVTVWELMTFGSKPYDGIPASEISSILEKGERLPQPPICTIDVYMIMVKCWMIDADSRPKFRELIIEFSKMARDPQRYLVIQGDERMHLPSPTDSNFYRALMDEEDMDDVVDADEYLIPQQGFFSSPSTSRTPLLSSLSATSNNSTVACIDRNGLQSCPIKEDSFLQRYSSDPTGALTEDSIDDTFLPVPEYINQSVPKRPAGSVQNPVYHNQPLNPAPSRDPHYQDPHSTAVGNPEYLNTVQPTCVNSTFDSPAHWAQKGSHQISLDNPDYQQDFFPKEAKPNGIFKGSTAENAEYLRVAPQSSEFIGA
In words: EGFR kinase inhibition assay (EGFR Kinase Assay Kit). The data set is classed as biochemical. As to conditions: triplicates; read-out: EGFR Inhibition IC50 ± SEM.

Where two headings read alike, the source gives them in different places.

A word on the IC50: it is the midpoint of a concentration-inhibition curve. What is called viability is a read-out of living cells in per cent, often relative to untreated cells. As usually defined, the inhibition is how much of the control response was suppressed. High values mean a strong effect, low ones a weak effect. `CN(C)c1ccc(/C=C/C(=O)c2cccc(/N=N\c3ccc(O)c4ncccc34)c2)cc1` [Compound C18, (E)-3-(4-(dimethylamino)phenyl)-1-(3-((Z)-(8-hydroxyquinolin-5-yl)diazenyl)phenyl) prop-2-en-1-one]: the concentration for half-maximal inhibition (IC50) in [1] was determined as 6.4 ± 1.5 µM; in data set [3] it was 3.2 ± 0.6 µM; in [4], 6.4 ± 0.4 µM; in data set [5], 6.7 ± 0.6 µM; in data set [6] it was 8.8 ± 2.5 µM; in data set [8], 40.2 ± 3.42 µM. Besides, the IC50 in data set [10] was found to be 6.3 ± 1.4 µM; in data set [11] it was 8.29 ± 0.88 µM. Further, in data set [2], the viability at 72 h is 88.4 ± 2.9%. Moreover, the inhibition at 10 µM in data set [7] was 73%; in data set [9] (Mus musculus, RAW264.7, RAW 264.7, compound 10 µM for 2 h, then LPS 0.5 µg/mL for 22 h) it was 71%. Moreover, in data set [9] (RAW 264.7, compound 10 µM, TNF-α relative to LPS control = 100), the “Relative Amount of LPS (TNF-α)” value is 29.
As to `CC(=O)c1cccc(/N=N/c2ccc(O)cc2O)c1` [Compound A2, (E)-1-(3-((2,4-Dihydroxyphenyl)daizenyl)phenyl)ethan-1-one], the concentration for half-maximal inhibition (IC50) was 9.6 ± 1.5 µM in data set [1]; 27.9 ± 1.65 µM in data set [3]; 9.6 ± 2 µM in data set [4]; 9.2 ± 2.5 µM in data set [5]; 8.4 ± 2.1 µM in [6]; 22.2 ± 2.45 µM in [8]. Besides, the IC50 turned out to be 5.9 ± 2.4 µM in data set [10] and 7.25 ± 1.24 µM in data set [11]. Moreover, the viability at 72 h in [2] was found to be 90.4 ± 1.9%.
For `CC(=O)c1cccc(/N=N/c2ccc(O)c3ncccc23)c1` [Compound A6, (E)-1-(3-((8-Hydroxyquinolin-5-yl)diazenyl)phenyl)ethan-1-one], the IC50 turned out to be 9.5 ± 1.9 µM in [1]; 5.21 ± 1.2 µM in [3]; 6.9 ± 2.1 µM in data set [4]; 7.6 ± 1.4 µM in data set [5]; 9.5 ± 1.5 µM in [6]; 4.85 ± 1.2 µM in [8]. For the same compound, the IC50 in data set [10] was found to be 8.8 ± 2.3 µM; in data set [11] it was 7.42 ± 1.41 µM. In addition, the viability at 72 h in [2] was found to be 82.5 ± 1.7%.
As to `CN(C)c1ccc(/C=C/C(=O)c2cccc(/N=N\c3c(O)ccc4ccccc34)c2)cc1` [Compound C17, (E)-3-(4-(dimethylamino)phenyl)-1-(3-((Z)-(2-hydroxynaphthalen-1-yl)diazenyl)phenyl) prop-2-en-1-one], the IC50 turned out to be 7.5 ± 1.9 µM in data set [1]; 5.29 ± 1.1 µM in [3]; 2.5 ± 1.2 µM in data set [4]; 9.2 ± 1.6 µM in data set [5]; 8.8 ± 2.5 µM in data set [6]; 49.1 ± 2.69 µM in data set [8]. Also, the IC50 turned out to be 5.6 ± 2.1 µM in data set [10] and 9.45 ± 1.67 µM in data set [11]. For the same compound, in [2], the viability at 72 h stood at 87.2 ± 1.4%.
For the compound `C[C@@H]1C[C@H]2[C@@H]3CCC4=CC(=O)C=C[C@]4(C)[C@@]3(F)[C@@H](O)C[C@]2(C)[C@@]1(O)C(=O)CO` [Dexamethasone, reference compound], the IC50 in data set [11] (read-out: sPLA2-V IC50, mean ± SD, n = 3) is 0.57 ± 0.06 µM.
Turning to `CC(=O)c1cccc(/N=N/c2c(O)ccc3ccccc23)c1` [Compound A5, (E)-1-(3-((2-Hydroxynaphthalen-1-yl)diazenyl)phenyl)ethan-1-one], the IC50 in data set [1] stood at 10.5 ± 1.9 µM; in [3], 14.2 ± 1.79 µM; in data set [4], 9.6 ± 1.8 µM; in [5], 11.9 ± 2.5 µM; in data set [6], 9.6 ± 2.4 µM; in data set [8] it was 9.23 ± 1.64 µM. Moreover, the IC50 amounted to 9.2 ± 1.2 µM in [10] and 4.24 ± 1.16 µM in [11]. For the same compound, the viability at 72 h in [2] turned out to be 88.2 ± 1.2%.
`CN(C)c1ccc(/C=C/C(=O)c2cccc(/N=N/c3ccc(O)cc3O)c2)cc1` [Compound C14, (E)-1-(3-((E)-(2,4-Dihydroxyphenyl)diazenyl)phenyl)-3-(4-(dimethylamino)phenyl) prop-2-en-1-one]: the half-maximal inhibitory concentration (IC50) was found to be 5.9 ± 1.9 µM in data set [1]; 5.14 ± 1.1 µM in data set [3]; 4.6 ± 1.7 µM in [4]; 6.5 ± 1.4 µM in [5]; 4.9 ± 1.6 µM in [6]; 11.5 ± 1.2 µM in data set [8]. For the same compound, the IC50 in data set [10] stood at 5.2 ± 1.3 µM; in data set [11] it was 7.04 ± 1.29 µM. This compound showed a viability at 72 h in data set [2] of 89.4 ± 2.1%.
Consider `CN(C)c1ccc(/C=C/C(=O)c2cccc(/N=N/c3ccc(O)cc3)c2)cc1` [Compound C13, (E)-3-(4-(Dimethylamino)phenyl)-1-(3-((E)-(4-hydroxyphenyl)diazenyl)phenyl)prop-2-en-1-one], for which the IC50 in data set [1] is 7.4 ± 1.7 µM; in data set [3] it was 19.2 ± 1.52 µM; in [4] it was 8.7 ± 1.4 µM; in data set [5], 7.8 ± 1.8 µM; in data set [6], 8.4 ± 1.5 µM; in data set [8], 18.3 ± 1.27 µM. In addition, the IC50 in data set [10] is 6.6 ± 1.2 µM; in [11], 5.06 ± 1.2 µM. The viability at 72 h in [2] turned out to be 90.6 ± 1.7%.
On to `O=C(/C=C/c1ccc(F)cc1)c1cccc(/N=N/c2ccc(O)cc2)c1` [Compound C7, (E)-3-(4-Fluorophenyl)-1-(3-((E)-(4-hydroxyphenyl)diazenyl)phenyl) prop-2-en-1-one], for which the half-inhibitory concentration (IC50) was determined as 2.9 ± 1.7 µM in data set [1]; 5.8 ± 1.1 µM in [12]; 29.4 ± 1.73 µM in [3]; 4.8 ± 1.6 µM in data set [4]; 4.5 ± 1.7 µM in data set [5]; 5.3 ± 1.5 µM in data set [6]. Besides, the results for the IC50 in data set [8], in data set [10] and in [11] were 7.52 ± 1.42 µM, 5 ± 1.4 µM and 24.7 ± 1.59 µM, respectively. Moreover, the viability at 72 h in [2] is 82.6 ± 1.2%.
As for `O=C(/C=C/c1ccc(F)cc1)c1cccc(/N=N/c2ccc(O)cc2O)c1` [Compound C8, (E)-1-(3-((E)-(2,4-Dihydroxyphenyl)diazenyl)phenyl)-3-(4-fluorophenyl) prop-2-en-1-one], the IC50 is 2.8 ± 0.6 µM in data set [1]; 4.9 ± 0.9 µM in data set [12]; 32.1 ± 1.4 µM in data set [3]; 1.9 ± 0.7 µM in data set [4]; 2.5 ± 7 µM in data set [5]; 2.6 ± 0.5 µM in data set [6]. For the same compound, the IC50 in data set [8] was 5.14 ± 1.27 µM; in data set [10] it was 2.2 ± 0.5 µM; in data set [11] it was 14.2 ± 1.32 µM. Moreover, in [2], the viability at 72 h came out at 83.5 ± 1.2%.
Turning to `C#Cc1cccc(Nc2ncnc3cc(OCCOC)c(OCCOC)cc23)c1` [Erlotinib, reference compound], the IC50 came out at 0.06 ± 0.04 µM in data set [1]; 0.05 ± 0.02 µM in [4]; 0.07 ± 0.04 µM in data set [5]; 4.14 ± 1.2 µM in data set [6]; 0.04 ± 0.02 µM in [10].
Regarding `CC(=O)c1cccc(/N=N/c2ccc(O)cc2)c1` [Compound A1], the IC50 is 8.6 ± 1.2 µM in [1]; 9.1 ± 1.8 µM in data set [4]; 8.3 ± 2.1 µM in data set [5]; 9.3 ± 1.9 µM in [6]; 7.4 ± 2.2 µM in data set [10]. In data set [2], the viability at 72 h stood at 80.3 ± 1.6%.
